The source made the active and inactive calls. No cut-off for these calls is given here.

Sequence of Phospholipase C (Bacillus cereus) (P09598 whole entry, looked up): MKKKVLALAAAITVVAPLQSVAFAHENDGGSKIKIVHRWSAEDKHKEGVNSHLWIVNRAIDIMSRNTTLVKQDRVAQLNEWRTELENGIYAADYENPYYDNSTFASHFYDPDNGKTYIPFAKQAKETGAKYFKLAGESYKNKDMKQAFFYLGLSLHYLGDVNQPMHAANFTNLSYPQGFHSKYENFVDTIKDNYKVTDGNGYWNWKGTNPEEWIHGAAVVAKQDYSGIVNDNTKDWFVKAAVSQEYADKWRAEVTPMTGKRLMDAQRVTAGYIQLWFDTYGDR

The assay concerns the target Phospholipase C (Bacillus cereus) (UniProt P09598). As to the kind of experiment: Inhibition of recombinant Bacillus cereus N-terminal His6-tagged full length PC-PLC 3C Protease cleavage site expressed in Escherichia coli BL21(DE3) cells at 10 uM using phosphatidylcholine as substrate by amplex red assay relative to control.
Broadly, the inhibition is the share of the control response that was lost under treatment. As for `COc1cc(C2NC(C(=O)O)Cc3c2[nH]c2ccccc32)cc(OC)c1O` (stereo not drawn), the inhibition was 60%.
`CN(C)c1ccc(C2NC(C(=O)O)Cc3c2[nH]c2ccccc32)cc1` (stereo not drawn): the inhibition was 43%.
Then `Cc1[nH]c2ccc(C(=O)O)cc2c1CC(=O)O`, with 60%.
The same measure for `CSc1ccc(CNc2ccc(N3CCOCC3)c(C(=O)O)c2)cc1`: “inactive”; for `O=C(O)c1cc(NCc2ccccc2Cl)ccc1N1CCOCC1`: 89%; for `O=C(O)C1Cc2c([nH]c3ccccc23)C(c2ccc(C(F)(F)F)cc2)N1` (stereo not drawn): 37%.
As to `O=C(O)c1cc(NCc2cccc(Cl)c2)ccc1N1CCOCC1`, the inhibition came out at 89%.
Then `O=C(O)c1cc(NCc2ccccc2C(F)(F)F)ccc1N1CCOCC1`, with “inactive”.
Then `O=C(O)C1Cc2c([nH]c3ccccc23)C(c2ccc(O)c(O)c2)N1` (stereo not drawn), with 75%.
The same measure for `CN1CCN(c2ccc(NCc3cccc(Br)c3)cc2C(=O)O)CC1`: “inactive”.
Consider `Cc1[nH]c2ccc(Cl)cc2c1CC(=O)O`, for which the inhibition was found to be 65%.
For `O=C(O)c1ccccc1N1CCOCC1`, the inhibition result was “inactive”.
Regarding `O=C(O)c1cc(NCc2cccc(Br)c2)ccc1N1CCOCC1`, the inhibition was found to be 80%.
On to `O=C(O)c1cccc(NS(=O)(=O)c2ccc(C3CCCCC3)cc2)c1`, for which the inhibition amounted to 25%.
`COc1cccc(C(=O)Nc2ccc(O)cc2C(=O)O)c1`: the inhibition came to 47%.
Then `O=C(O)C1Cc2c([nH]c3ccccc23)C(c2ccc(Cl)cc2Cl)N1` (stereo not drawn), with 44%; and `O=C(O)c1cc(NCc2ccc(Cl)cc2Cl)ccc1N1CCOCC1`, with 65%.
The same measure for `O=C(O)c1cc(NCc2ccccc2)ccc1N1CCOCC1`: 67%.

(Values after ChEMBL document CHEMBL4706483, “Discovery of novel phosphatidylcholine-specific phospholipase C drug-like inhibitors as potential anticancer agents” (Eur J Med Chem, 2020).)
